In general, melting point refers to the temperature, or range, at which the solid turns liquid. The IC50 is the concentration that gives 50% inhibition. A lower IC50 goes with inhibition by little substance.

This note sets out measurements from US8507475B2, “Substituted heteroarylamide diazepinopyrimidone derivatives” (Sanofi, priority 2008, dated 2013).

Structures can show the parent of a compound that is named as a salt.

The target in data set [1] is GSK3β (Homo sapiens, UniProt P49841). The data set can be described thus: Inhibitory activity against GSK3β (33P-ATP phosphorylation of prephosphorylated GS1 peptide). The class given is biochemical. To be noted: protocol 4: commercial GSK3beta (Millipore), 7.5 μM GS1 peptide, 10 μM ATP, 50 mM Hepes pH 7.2, 90 minutes at room temperature. The protocol:
Four different protocols can be used. In a first protocol: 7.5 μM of prephosphorylated GS1 peptide and 10 μM ATP (containing 300,000 cpm of ^33P-ATP) were incubated in 25 mM Tris-HCl, pH 7.5, 0.6 mM DTT, 6 mM MgCl2, 0.6 mM EGTA, 0.05 mg/ml BSA buffer for 1 hour at room temperature in the presence of GSK3beta (total reaction volume: 100 microliters). In a second protocol: 4.1 μM of prephosphorylated GS1 peptide and 42 μM ATP (containing 260,000 cpm ^33P-ATP) were incubated in 80 mM Mes-NaOH, pH 6.5, 1 mM Mg acetate, 0.5 mM EGTA, 5 mM 2-mercaptoethanol, 0.02% Tween 20, 10% glycerol buffer for 2 hours at room temperature in the presence of GSK3beta. In a third protocol: 7.5 μM of prephosphorylated GS1 peptide and 10 μM ATP (containing 300,000 cpm of ^33P-ATP) were incubated in 50 mM Hepes, pH 7.2, 1 mM DTT, 1 mM MgCl2, 1 mM EGTA, 0.01% Tween 20 buffer for one hour at room temperature in the presence of GSK3beta (total reaction volume: 100 microliters). In a fourth protocol: 7.5 μM of prephosphorylated GS1 peptide and 10 μM ATP (containing 300,000 cpm of ^33P-ATP) were incubated in 50 mM Hepes, pH 7.2, 1 mM DTT, 1 mM MgCl2, 1 mM EGTA, 0.01% Tween 20 buffer for 90 minutes at room temperature in the presence of commercial GSK3beta (Millipore) (total reaction volume: 100 microliters). Inhibitors were solubilised in DMSO (final solvent concentration in the reaction medium, 1%). The reaction was stopped with 100 microliters of a solution made of 25 g polyphosphoric acid (85% P2O5), 126 ml 85% H3PO4, H2O to 500 ml and then diluted to 1:100 before use. An aliquot of the reaction mixture was then transferred to Whatman P81 cation exchange filters and rinsed with the solution described above. Incorporated ^33P radioactivity was determined by liquid scintillation spectrometry. The phosphorylated GS-1 peptide had the following sequence: NH2-[…](P)EDEE-COOH. (Woodgett, J. R. (1989) Analytical Biochemistry 180, 237-241.

Sequence of GSK3β (P49841 whole entry): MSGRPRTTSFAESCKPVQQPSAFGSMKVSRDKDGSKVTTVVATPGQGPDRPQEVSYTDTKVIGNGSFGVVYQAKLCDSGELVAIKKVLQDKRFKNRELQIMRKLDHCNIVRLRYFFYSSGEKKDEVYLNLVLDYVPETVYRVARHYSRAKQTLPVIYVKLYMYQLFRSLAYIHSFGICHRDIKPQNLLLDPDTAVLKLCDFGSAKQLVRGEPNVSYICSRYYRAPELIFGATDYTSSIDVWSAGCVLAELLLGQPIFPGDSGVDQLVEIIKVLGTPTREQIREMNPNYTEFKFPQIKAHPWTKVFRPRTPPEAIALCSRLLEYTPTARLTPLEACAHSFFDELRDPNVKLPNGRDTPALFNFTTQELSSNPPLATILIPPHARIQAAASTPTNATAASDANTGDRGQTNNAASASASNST

In the case of `CCOC(=O)N1CCn2c(nc(-c3ccncc3)cc2=O)C(NC(=O)c2cccc3c2OCC3)C1` (racemic) [compound 8, (+/−)-9-[(2,3-Dihydro-benzofuran-7-carbonyl)-amino]-4-oxo-2-pyridin-4-yl-5,6,8,9-tetrahydro-4H-1,4-a,7-thaza-benzocycloheptene-7-carboxylic acid ethyl ester], the melting point lay in the range of 284 to 286 °C. Moreover, half-maximal inhibition in data set [1] (IC50) required 109 nM.
Regarding `CN1CCn2c(nc(-c3ccncn3)cc2=O)C(NC(=O)c2cc(Cl)c(N)c3c2OCCO3)C1` (racemic) [compound 22, (+/−)-8-Amino-7-chloro-2,3-dihydro-benzo[1,4]dioxine-5-carboxylic acid (7-methyl-4-oxo-2-pyrimidin-4-yl-4,5,6,7,8,9-hexahydro-1,4a,7-triaza-benzocyclohepten-9-yl)-amide], the melting point is 169 to 171 °C. Moreover, it took 47 nM to reach half-maximal inhibition in data set [1] (IC50).
For the molecule `CCOC(=O)N1CCn2c(nc(-c3ccncn3)cc2=O)C(NC(=O)c2ccc3ncccc3n2)C1` (racemic) [Compound No. 1, (+/−)-9-[([1,5]Naphthyridine-2-carbonyl)-amino]-4-oxo-2-pyrimidin-4-yl-5,6,8,9-tetrahydro-4H-1,4a,7-triaza-benzocycloheptene-7-carboxylic acid ethyl ester], the melting point was 284 to 286 °C. Moreover, half-maximal inhibition in data set [1] (IC50) required 73 nM.
The molecule `O=C(NC1CNCCn2c1nc(-c1ccncc1)cc2=O)c1cc(F)cc2c1OCOC2` (racemic) [Compound No. 26, (+/−)-6-Fluoro-4H-benzo[1,3]dioxine-8-carboxylic acid (4-oxo-2-pyridin-4-yl-4,5,6,7,8,9-hexahydro-1,4a,7-triaza-benzocyclohepten-9-yl)-amide] registered an IC50 in data set [1] of 12 nM.
Regarding `O=C(NC1CNCCn2c1nc(-c1ccncc1)cc2=O)c1cc(F)cc2c1OCOC2` (racemic) (as salt: HCl) [Compound No. 26, (+/−)-6-Fluoro-4H-benzo[1,3]dioxine-8-carboxylic acid (4-oxo-2-pyridin-4-yl-4,5,6,7,8,9-hexahydro-1,4a,7-triaza-benzocyclohepten-9-yl)-amide], the melting point lay within 232 to 234 °C.
